Laboratory results: article PMC9780857 (International Journal of Molecular Sciences, 2022)
Read-outs that look alike come from different tables or passages of the source.

Experiments:
[1] = biological target: T1, hOCT2 (Homo sapiens, UniProt O15244); test: Inhibition of hOCT2-mediated 14C-metformin uptake in transfected HEK293 cells; format: cell-based; design: expressed in transfected cells; host or cells: HEK293 (stably transfected)
T1 sequence (O15244 1-555): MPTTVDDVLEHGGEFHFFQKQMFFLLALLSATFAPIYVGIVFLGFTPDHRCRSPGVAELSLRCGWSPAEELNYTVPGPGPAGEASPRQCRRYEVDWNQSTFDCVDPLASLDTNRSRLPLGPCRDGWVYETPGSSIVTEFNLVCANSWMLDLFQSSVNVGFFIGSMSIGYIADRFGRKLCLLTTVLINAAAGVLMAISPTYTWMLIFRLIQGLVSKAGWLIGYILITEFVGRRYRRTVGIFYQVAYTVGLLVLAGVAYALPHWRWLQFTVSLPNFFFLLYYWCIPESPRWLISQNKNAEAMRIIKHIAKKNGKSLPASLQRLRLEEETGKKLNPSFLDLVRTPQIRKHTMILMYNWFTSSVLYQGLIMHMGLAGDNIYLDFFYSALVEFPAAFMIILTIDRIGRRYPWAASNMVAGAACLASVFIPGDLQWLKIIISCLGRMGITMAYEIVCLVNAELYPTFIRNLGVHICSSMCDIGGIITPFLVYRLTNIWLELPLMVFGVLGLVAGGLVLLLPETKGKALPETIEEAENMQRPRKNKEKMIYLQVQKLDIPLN
Method: (§1) The uptake assays were performed as previously described in 24-well plates. […] After incubation, the uptake was stopped by aspirating the reaction mixture and washing the cells three times with 0.4 mL ice-cold PBS buffer. Cells were then solubilized with 0.6 mL of 1 N NaOH, overnight. The whole content of each well (0.6 mL) was transferred to a scintillation vial (Perkin Elmer). The radio-labelled amount was determined by liquid scintillation counting.
(§2) All inhibition experiments were conducted on at least two separate days in triplicate.
(§3) For screening experiments, cis-inhibition was carried out in duplicate by measuring the uptake of the labeled probe substrate in the absence and presence of 10 µM or 100 µM of the respective pesticide or drug. […] Inhibitory effects in percent were calculated from net-uptake. […]

[2] = biological target: T2, mOct2 (Mus musculus, UniProt O70577); test: Inhibition of mOct2-mediated 14C-metformin uptake in transfected HEK293 cells; format: cell-based; design: expressed in transfected cells; host or cells: HEK293 (stably transfected)
T2 sequence (O70577 1-553): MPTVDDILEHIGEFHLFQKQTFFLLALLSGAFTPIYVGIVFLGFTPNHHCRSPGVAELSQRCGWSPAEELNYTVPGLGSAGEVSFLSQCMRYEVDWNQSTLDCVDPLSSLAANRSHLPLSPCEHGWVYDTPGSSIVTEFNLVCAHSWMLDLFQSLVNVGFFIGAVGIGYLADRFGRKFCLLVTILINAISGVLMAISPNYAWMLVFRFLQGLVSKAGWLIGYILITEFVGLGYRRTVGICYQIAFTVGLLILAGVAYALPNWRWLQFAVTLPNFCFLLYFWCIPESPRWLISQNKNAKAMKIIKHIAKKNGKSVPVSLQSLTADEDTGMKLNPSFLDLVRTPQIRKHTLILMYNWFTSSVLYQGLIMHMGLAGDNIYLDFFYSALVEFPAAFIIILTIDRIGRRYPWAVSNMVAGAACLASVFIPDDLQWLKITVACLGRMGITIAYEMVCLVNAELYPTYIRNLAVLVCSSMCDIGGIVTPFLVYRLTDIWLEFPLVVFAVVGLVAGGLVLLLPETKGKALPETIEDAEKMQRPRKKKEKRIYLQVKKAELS
Method: as §1, §2, §3

[3] = HEK293, 10 µM test compound; 1 µM [14C]metformin, 2 min, HEK293; negative = stimulation; read-out: Inhibitory Effects (%) hOCT2 10 µM Mean
[4] = HEK293, 100 µM test compound; 1 µM [14C]metformin, 2 min, HEK293; negative = stimulation; read-out: Inhibitory Effects (%) hOCT2 100 µM Mean
[5] = HEK293; read-out: Inhibitory Effects (%) mOct2 10 µM Mean
[6] = HEK293; read-out: Inhibitory Effects (%) mOct2 100 µM Mean
[7] = 10 µM test compound; 1 µM [14C]metformin, 2 min, HEK293; negative = stimulation
[8] = HEK293; read-out: Inhibitory Effects (%) hOCT2 10 µM Mean
[9] = HEK293; read-out: Inhibitory Effects (%) hOCT2 100 µM Mean
[10] = HEK293, read-out: Inhibitory Effects (%) hOCT2 10 µM Mean
[11] = HEK293, read-out: Inhibitory Effects (%) hOCT2 100 µM Mean
[12] = HEK293, read-out: Inhibitory Effects (%) mOct2 10 µM Mean
[13] = HEK293, read-out: Inhibitory Effects (%) mOct2 100 µM Mean
[14] = HEK293, 10 µM test compound; 1 µM [14C]metformin, 2 min, HEK293; negative = stimulation; read-out: Inhibitory Effects (%) mOct2 10 µM Mean
[15] = HEK293, 100 µM test compound; 1 µM [14C]metformin, 2 min, HEK293; negative = stimulation; read-out: Inhibitory Effects (%) mOct2 100 µM Mean
[16] = 100 µM test compound; 1 µM [14C]metformin, 2 min, HEK293; negative = stimulation

inhibition at 10 µM [1, 3] [%]	inhibition at 100 µM [1, 4] [%]	inhibition at 10 µM [2, 14] [%]	inhibition at 100 µM [2, 15] [%]	SMILES	inhibition at 10 µM [1, 10] [%]	inhibition at 100 µM [1, 11] [%]	inhibition at 10 µM [2, 12] [%]	inhibition at 100 µM [2, 13] [%]	other results
				CCCOC(=O)NCCCN(C)C [Propamocarb]					Inhibitory Effects (%) hOCT2 10 µM Mean [1, 7]: negligible; inhibition at 10 µM [1, 8]: 1%; inhibition at 100 µM [1, 9]: 55%; Inhibitory Effects (%) mOct2 10 µM Mean [2, 7]: negligible; inhibition at 10 µM [2, 5]: -9%; inhibition at 100 µM [2, 6]: 48%
				COc1ccc(CCN(C)CCCC(C#N)(c2ccc(OC)c(OC)c2)C(C)C)cc1OC (stereo not drawn) [Verapamil]	-8	44	23	73	
				CCNc1nc(Cl)nc(NC(C)C)n1 [Atrazin]	-57	-53	-44	-27	
				Cc1ccc(/N=C/N(C)/C=N/c2ccc(C)cc2C)c(C)c1 [Amitraz]	-98	-96	-33	-12	
-10	-27	-7	4	CCCCc1oc2ccccc2c1C(=O)c1cc(I)c(OCCN(CC)CC)c(I)c1 [Amiodarone]					
-10	-47	-11	-30	O[C@@H](COc1cccc2ncccc12)CN1CCN([C@@H]2c3ccccc3[C@@H]3[C@H](c4ccccc42)C3(F)F)CC1 [Zosuquidar]					
				CCCN(CCOc1c(Cl)cc(Cl)cc1Cl)C(=O)n1ccnc1 [Prochloraz]	-43	-17	-13	10	
				CO/C=C(/C(=O)OC)c1ccccc1Oc1cc(Oc2ccccc2C#N)ncn1 [Azoxystrobin]					Inhibitory Effects (%) hOCT2 10 µM Mean [1, 7]: −40%; Inhibitory Effects (%) hOCT2 100 µM Mean [1, 16]: −14%; Inhibitory Effects (%) mOct2 10 µM Mean [2, 7]: −6%; Inhibitory Effects (%) mOct2 100 µM Mean [2, 16]: −17%
				O=[N+]([O-])NC1=NCCN1Cc1ccc(Cl)nc1 [Imidacloprid]	-74	-43	-52	-29	
-50	-17	-42	24	CN/C(=N/CCSCc1nc[nH]c1C)NC#N [Cimetidine]					
				O=C(O)CNCP(=O)(O)O [Glyphosat]	-24	-48	-13	-31	

SMILES	inhibition at 10 µM [1, 3] [%]	inhibition at 100 µM [1, 4] [%]	inhibition at 10 µM [2, 14] [%]	inhibition at 100 µM [2, 15] [%]	inhibition at 10 µM [1, 10] [%]	inhibition at 100 µM [1, 11] [%]	inhibition at 10 µM [2, 12] [%]	inhibition at 100 µM [2, 13] [%]	other results
COC(=O)[C@H]1[C@H]2C[C@@H]3c4[nH]c5cc(OC)ccc5c4CCN3C[C@H]2C[C@@H](OC(=O)c2cc(OC)c(OC)c(OC)c2)[C@@H]1OC [Reserpine]	-13	-27							inhibition at 10 µM [2, 5]: -27%; inhibition at 100 µM [2, 6]: -19%
C=C[C@H]1C[N@@]2CC[C@H]1C[C@@H]2[C@@H](O)c1ccnc2ccc(OC)cc12 [Quinidine]			-38	-28					inhibition at 10 µM [1, 8]: -50%; inhibition at 100 µM [1, 9]: -31%
